Source: patent US8586588B2, “Aryl pyridazinone derivatives and their use as H3 receptor ligands” (Cephalon, Inc., priority 2006, dated 2013)

What was measured:
human H3 receptor = biological target: T1, human H3 receptor (Homo sapiens, UniProt Q9Y5N1); assay: Human H3 radioligand binding ([3H]-N-alpha-methylhistamine, CHO cell membranes, SPA); conditions: Table B
T1 construct: expressed in transfected cells
Method in brief: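 CHO cell membranes expressing human H3 (10 μg protein/well) incubated 4 h at room temperature, in the dark, with ~1 nM [3H]-N-alpha-methylhistamine, compounds (0.01 nM-30 μM) and SPA beads in 50 mM Tris HCl pH 7.4, 5 mM MgCl2, 0.1% BSA. Non-specific binding defined with 10 μM clobenpropit.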

[1] = biological target: T2, rat histamine H3 receptor (Rattus norvegicus, UniProt Q9QYN8); assay: Rat H3 radioligand binding ([3H]-N-alpha-methylhistamine, CHO-A3 cell membranes, SPA); conditions: Table B, binding constant as letter class; read-out: rat H3 Ki
T2 construct: encoding the entire 445-amino-acid rat histamine H3 receptor; expressed in transfected cells
Method in brief: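 Membranes from CHO-A3 cells stably expressing rat H3 (10 μg protein) incubated 4 h at room temperature in 50 mM Tris-HCl pH 7.4, 5 mM MgCl2, 0.1% BSA with ~1 nM [3H]-N-alpha-methylhistamine and compound (0.01 nM-30 μM). Bound radioligand read by scintillation proximity; nonspecific binding with 10 μM clobenpropit.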

[2] = binding constant as letter class

T1 sequence (Q9Y5N1 whole entry): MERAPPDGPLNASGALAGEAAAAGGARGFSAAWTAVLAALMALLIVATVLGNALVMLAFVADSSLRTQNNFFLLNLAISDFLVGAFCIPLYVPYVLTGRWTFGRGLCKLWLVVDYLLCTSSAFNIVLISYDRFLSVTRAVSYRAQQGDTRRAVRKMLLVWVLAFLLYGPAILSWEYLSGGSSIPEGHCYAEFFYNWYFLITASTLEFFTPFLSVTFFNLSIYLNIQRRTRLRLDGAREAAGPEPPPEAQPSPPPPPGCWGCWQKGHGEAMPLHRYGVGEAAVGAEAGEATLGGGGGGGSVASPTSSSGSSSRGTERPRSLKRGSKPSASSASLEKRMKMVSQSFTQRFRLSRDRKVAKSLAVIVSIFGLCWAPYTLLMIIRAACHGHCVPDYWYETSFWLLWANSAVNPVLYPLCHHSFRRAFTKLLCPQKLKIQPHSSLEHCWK
T2 sequence (Q9QYN8 whole entry): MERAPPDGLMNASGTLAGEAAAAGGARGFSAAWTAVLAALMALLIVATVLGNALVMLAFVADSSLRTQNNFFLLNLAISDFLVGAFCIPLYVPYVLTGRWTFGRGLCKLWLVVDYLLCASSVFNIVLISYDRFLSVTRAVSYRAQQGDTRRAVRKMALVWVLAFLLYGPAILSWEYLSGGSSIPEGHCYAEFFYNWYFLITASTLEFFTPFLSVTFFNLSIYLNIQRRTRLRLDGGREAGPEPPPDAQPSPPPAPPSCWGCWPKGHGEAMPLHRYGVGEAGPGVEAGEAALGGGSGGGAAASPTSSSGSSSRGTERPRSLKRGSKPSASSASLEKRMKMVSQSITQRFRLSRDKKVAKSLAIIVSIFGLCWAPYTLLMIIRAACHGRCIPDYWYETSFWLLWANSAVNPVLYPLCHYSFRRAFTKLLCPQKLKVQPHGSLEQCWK

Compound | Ki (human H3 receptor; [2]) [nM] | melting point | Ki [1] [nM] | Ki (human H3 receptor; cell prints a number instead of a letter) [nM]
C[C@@H]1CCCN1CCCOc1ccc(C2=NNC(=O)C3CCC23)cc1 (stereo partly drawn) [Example 173, 5-{4-[3-((R)-2-Methyl-pyrrolidin-1-yl)-propoxy]-phenyl}-3,4-diaza-bicyclo[4.2.0]oct-4-en-2-one] | 0.1 to 100 | 218 to 220 °C | 0.1 to 100 | 
O=C1NN=C(c2ccc(OC3CCN(C4CCC4)CC3)cc2)C2CCCC12 (stereo not drawn) [Example 174, 4-[4-(1-Cyclobutyl-piperidin-4-yloxy)-phenyl)-2,4a,5,6,7,7a-hexahydro-cyclopenta[d]pyridazin-1-one] | 0.1 to 100 | > 255 °C (dec.) | 0.1 to 100 | 
C[C@@H]1CCCN1CCCOc1ccc(C2=NNC(=O)C3CCCC23)cc1 (stereo partly drawn) [Example 175, 4-{4-[3-((R)-2-Methyl-pyrrolidin-1-yl)-propoxy]-phenyl}-2,4a,5,6,7,7a-hexahydro-cyclopenta[d]pyridazin-1-one] | 0.1 to 100 | 218 to 219 °C | 0.1 to 100 | 
O=c1[nH]nc(-c2ccc(OC3CCN(C4CCC4)CC3)cc2)c2c1CCC2 [Example 176, 4-[4-(1-Cyclobutyl-piperidin-4-yloxy)-phenyl]-2,5,6,7-tetrahydro-cyclopenta[d]pyridazin-1-one] | 0.1 to 100 | 210 to 213 °C | 0.1 to 100 | 
O=C1CCC(c2ccc(OC3CCN(C4CCC4)CC3)nc2)=NN1C1CCC1 [Example 177, 2-Cyclobutyl-6-[6-(1-cyclobutyl-piperidin-4-yloxy)-pyridin-3-yl]-4,5-dihydro-2H-pyridazin-3-one] | 0.1 to 100 | 146 to 149 °C | 0.1 to 100 | 
C[C@@H]1CCCN1CCCOc1ccc(C2=NNC(=O)C(C)(C)C2)cc1 [Example 179, 4,4-Dimethyl-6-{4-[3-((R)-2-methyl-pyrrolidin-1-yl)-propoxy]-phenyl}-4,5-dihydro-2H-pyridazin-3-one] | 0.1 to 100 | 140 to 142 °C | 0.1 to 100 | 
C[C@@H]1CCCN1CCCOc1ccc(C2=NNC(=O)CC2)cc1F [Example 180, 6-{3-Fluoro-4-[3-((R)-2-methyl-pyrrolidin-1-yl)-propoxy]-phenyl}-4,5-dihydro-2H-pyridazin-3-one] | 0.1 to 100 | 132 to 133 °C | 0.1 to 100 | 
O=C1CCC(c2ccc(OCCCN3CCCCC3)c(F)c2)=NN1 [Example 181, 6-[3-Fluoro-4-(3-piperidin-1-yl-propoxy)-phenyl]-4,5-dihydro-2H-pyridazin-3-one] | 0.1 to 100 | 164 to 166 °C | 101 to 500 | 
C[C@@H]1CCCN1CCCOc1ccc(C2=NNC(=O)CC2(C)C)cc1 [Example 182, 5,5-Dimethyl-6-{4-[3-((R)-2-methyl-pyrrolidin-1-yl)-propoxy]-phenyl}-4,5-dihydro-2H-pyridazin-3-one] | 0.1 to 100 | 118 to 121 °C | 0.1 to 100 | 
C[C@@H]1CCCN1CCCOc1c(F)cc(-c2ccc(=O)[nH]n2)cc1F [Example 184, 6-{3,5-Difluoro-4-[3-((R)-2-methyl-pyrrolidin-1-yl)-propoxy]-phenyl}-2H-pyridazin-3-one] | 0.1 to 100 | 169 to 171 °C | 0.1 to 100 | 
C[C@@H]1CCCN1CCCOc1c(Br)cc(-c2ccc(=O)[nH]n2)cc1Br [Example 185, 6-{3,5-Dibromo-4-[3-((R)-2-methyl-pyrrolidin-1-yl)-propoxy]-phenyl}-2H-pyridazin-3-one] | 0.1 to 100 | 165 to 167 °C | 0.1 to 100 | 
C[C@@H]1CCCN1CCCOc1c(F)cc(C2=NNC(=O)CC2)cc1F [Example 186, 6-{3,5-Difluoro-4-[3-((R)-2-methyl-pyrrolidin-1-yl)-propoxy]-phenyl}-4,5-dihydro-2H-pyridazin-3-one] | 0.1 to 100 | 102 to 104 °C | 0.1 to 100 | 
O=C1CCC(c2cc(F)c(OC3CCN(C4CCC4)CC3)c(F)c2)=NN1 [Example 187, 6-[4-(1-Cyclobutyl-piperidin-4-yloxy)-3,5-difluoro-phenyl]-4,5-dihydro-2H-pyridazin-3-one] | 0.1 to 100 | 162 to 164 °C | 0.1 to 100 | 
O=c1ccc(-c2cc(F)c(OC3CCN(C4CCC4)CC3)c(F)c2)n[nH]1 [Example 188, 6-[4-(1-Cyclobutyl-piperidin-4-yloxy)-3,5-difluoro-phenyl]-2H-pyridazin-3-one] | 0.1 to 100 | 195 to 197 °C | 0.1 to 100 | 
CCC1CC(=O)NN=C1c1ccc(OC2CCN(C3CCC3)CC2)cc1 (stereo not drawn) [Example 192] |  | 152 to 154 °C | 0.1 to 100 | 4
C[C@@H]1CCCN1CCCOc1ccc(-n2nc(-c3ccccc3)ccc2=O)cc1 [Example 200, 2-{4-[3-((R)-2-Methyl-pyrrolidin-1-yl)-propoxy]-phenyl}-6-phenyl-2H-pyridazin-3-one] | 0.1 to 100 | 86 to 89 °C | 0.1 to 100 | 

Compound | Ki (human H3 receptor; [2]) [nM] | melting point | Ki [1] [nM] | Ki (human H3 receptor; cell prints a number instead of a letter) [nM]
C[C@@H]1CCCN1CCCOc1ccc(-n2ncc3ccccc3c2=O)cc1 [Example 202, 2-{4-[3-((R)-2-Methyl-pyrrolidin-1-yl)-propoxy]-phenyl}-2H-phthalazin-1-one] | 0.1 to 100 | 70 to 73 °C | 0.1 to 100 | 
C[C@@H]1CCCN1CCCOc1ccc(-n2nc(-c3cccnc3)ccc2=O)cc1 [Example 204, 2-{4-[3-((R)-2-Methyl-pyrrolidin-1-yl)-propoxy]-phenyl}-6-pyridin-3-yl-2H-pyridazin-3-one] | 0.1 to 100 | 87 to 90 °C | 0.1 to 100 | 
Cc1onc2c(=O)[nH]nc(-c3ccc(OCCCN4CCCCC4)cc3)c12 [Example 207, 3-Methyl-4-[4-(3-piperidin-1-yl-propoxy)-phenyl]-6H-isoxazolo[3,4-d]pyridazin-7-one] | 0.1 to 100 | 178 to 179 °C | 0.1 to 100 | 
Cc1onc2c(=O)[nH]nc(-c3ccc(OCCCN4CCC[C@H]4C)cc3)c12 [Example 208, 3-Methyl-4-{4-[3-((R)-2-methyl-pyrrolidin-1-yl)-propoxy]-phenyl}-6H-isoxazolo[3,4-d]pyridazin-7-one] | 0.1 to 100 | 169 to 170 °C | 0.1 to 100 | 
Cc1cc(=O)[nH]nc1-c1ccc(OCCCN2CCC[C@H]2C)cc1 [Example 210, 5-Methyl-6-{4-[3-((R)-2-methyl-pyrrolidin-1-yl)-propoxy]-phenyl}-2H-pyridazin-3-one] | 0.1 to 100 | 253 to 255 °C | 0.1 to 100 | 
CCc1cc(=O)[nH]nc1-c1ccc(OCCCN2CCC[C@H]2C)cc1 [Example 211, 5-Ethyl-6-{4-[3-((R)-2-methyl-pyrrolidin-1-yl)-propoxy]-phenyl}-2H-pyridazin-3-one] | 0.1 to 100 | 272 to 275 °C | 0.1 to 100 | 
C[C@@H]1CCCN1CCCOc1ccc(-c2ccc(=O)[nH]n2)c(F)c1 [Example 214, 6-{2-Fluoro-4-[3-((R)-2-methyl-pyrrolidin-1-yl)-propoxy]-phenyl}-2H-pyridazin-3-one] | 0.1 to 100 | 220 to 222 °C | 0.1 to 100 | 
O=C1CC2CCc3cc(OC4CCN(C5CCC5)CC4)ccc3C2=NN1 (stereo not drawn) [Example 220, 8-(1-Cyclobutyl-piperidin-4-yloxy)-4,4a,5,6-tetrahydro-2H-benzo[h]cinnolin-3-one] | 0.1 to 100 | > 300 °C | 0.1 to 100 | 
O=c1ccc(-c2ccc(OC3CCN(C4CCC4)CC3)cc2F)n[nH]1 [Example 221, 6-[4-(1-Cyclobutyl-piperidin-4-yloxy)-2-fluoro-phenyl]-2H-pyridazin-3-one] | 0.1 to 100 | > 300 °C | 0.1 to 100 | 
Cc1cc(=O)[nH]nc1-c1ccc(OC2CCN(C3CCC3)CC2)cc1 [Example 222, 6-[4-(1-Cyclobutyl-piperidin-4-yloxy)-phenyl]-5-methyl-2H-pyridazin-3-one] | 0.1 to 100 | > 300 °C | 0.1 to 100 | 
COCn1ncc(-c2ccc(OCCCN3CCC[C@H]3C)cc2)cc1=O [Example 224, 2-Methoxymethyl-5-{4-[3-((R)-2-methyl-pyrrolidin-1-yl)-propoxy]-phenyl}-2H-pyridazin-3-one] | 0.1 to 100 | 183 to 185 °C | 0.1 to 100 | 
C[C@H](COc1ccc(-c2cn[nH]c(=O)c2)cc1)CN1CCCCC1 [Example 227, 5-[4-((S)-2-Methyl-3-piperidin-1-yl-propoxy)-phenyl]-2H-pyridazin-3-one] | 0.1 to 100 | 145 to 148 °C | 0.1 to 100 | 
C[C@@H](COc1ccc(-c2cn[nH]c(=O)c2)cc1)CN1CCCCC1 [Example 228, 5-[4-((R)-2-Methyl-3-piperidin-1-yl-propoxy)-phenyl]-2H-pyridazin-3-one] | 0.1 to 100 | 160 to 163 °C | 101 to 500 | 
C[C@@H]1CCCN1CCCOc1c(Br)cc(-c2cn[nH]c(=O)c2)cc1Br [Example 229] | 0.1 to 100 | 175 to 180 °C | 501 to 1000 | 
Cc1cc(OCCCN2CCCCC2)ccc1-c1cn[nH]c(=O)c1 [Example 233, 5-[2-Methyl-4-(3-piperidin-1-yl-propoxy)-phenyl]-2H-pyridazin-3-one] | 0.1 to 100 | 112 to 113 °C | 101 to 500 | 
O=c1ccc(-c2ccc(OCCCN3CCCC3)cc2)n[nH]1 [Example 240, 6-[4-(3-Pyrrolidin-1-yl-propoxy)-phenyl]-2H-pyridazin-3-one] | 0.1 to 100 | 154 to 157 °C | 0.1 to 100 | 
